US10067136B1, “Photoactivatable probes and uses thereof” (University of South Florida, priority 2016, dated 2018)
Entries after “also recorded” stand apart in the source; their conditions may differ.

Key:
[1] = Ambient light stability evaluation (fluorescent lamps, 19F NMR); type: physicochemical; conditions: d4-methanol; for photodecomposition under ambient light (in words): after 7 days of light exposure; for diazirine remaining intact after ambient light exposure: one month, two linear fluorescent lamps (28 W each), room temperature
Method: (§1) Photolabel (1, 2, or 3) (1 mg) was dissolved in d4-methanol (500 μL) in a 5 mm NMR tube. The ^19F NMR of this solution was recorded before any exposure to ambient light as the zero day reading. The NMR tube was then placed directly under two linear fluorescent lamps (28 W each) at room temperature and the ^19F NMR of this solution was recorded periodically (4, 7, 14, 18, 26 and 31 days). The analysis was repeated in duplicate.

[2] = Thermal stability evaluation in the dark (19F NMR); type: physicochemical; conditions: d4-methanol solution, room temperature (21° C.), one month
Method: as §1, with “in the dark” for “directly under two linear fluorescent lamps (28 W each)”, “(8,” for “(4, 7,”, “14,” for “14, 18, 26”

concanavalin A (Con A) [3] = biological target: T1, concanavalin A (Con A) (Canavalia ensiformis, UniProt P02866); test: Photolabeling of Con A, Coomassie gel and anti-biotin western blot; type: binding; conditions: for photolabeling of Con A upon UV photoactivation (in words): UV light >320 nm, 10 minutes, anti-biotin peroxidase western blot; for labeling of Con A without UV photoactivation (in words): incubated with Con A, not exposed to UV light
Method: To a solution of concanavalin A (Con A) (0.2 mg) in acetate buffer (10 mM, pH=5 with calcium chloride (1 mM), manganese (II) chloride (1 mM) and sodium chloride (200 mM)) (1 ml), the photoaffinity label (20, 21 or 22) solution (10 mM) in methanol (3 μL) was added at 0° C. This solution was bubbled with a gentle stream of nitrogen gas, using a clean needle, for 5 minutes and incubated in the dark at 0° C. for 30 minutes. […] The resultant sample can be stored at −80° C. and used for SDS gel, Western blot analysis or mass spectroscopic analysis.
Upon running the SDS gel, the PVDF membrane and gel was shaken in transfer buffer for 15 minutes. The holder cassette was placed opened in a shallow vessel such that the black panel was lying flat on the bottom of the vessel. Fiber pad presoaked with transfer buffer was then placed on the black panel of the holder cassette and a presoaked filter paper was placed over it. The equilibrated gel was carefully placed over the filter paper to avoid any air bubble getting trapped between the layers. Then the PVDF membrane was laid over the gel with care towards avoiding any air pocket between the layers. A presoaked filter paper was placed over the membrane followed by a filter pad. The resultant sandwich was firmly secured and the cassette was closed. The cassette holder was placed in the tank such that the black panel of the holder was on the black panel electrode. Insert the ice pack on the other side of the tank and place the tank on a magnetic stirrer. The tank was filled to the top row of circles in the cassette with transfer buffer. The magnetic stirrer was turned on and the lid was closed with black wire to black panel, red wire to red panel. The unit was connected to a power supply and ran at constant voltage of 70 V for 60 minutes. The membrane was carefully removed and the membrane was blocked with 5% (w/v) NFDM (non-fat dry milk) in tris saline Tween-20 buffer (TBS-T) for 1 hour at room temperature. The blocked membrane was then incubated overnight on a shaker at 4° C. with anti-biotin-peroxidase antibody in TBS-T buffer containing 1% NFDM. The membrane was washed five times (10 minutes each time on a shaker) with TBS-T buffer. The membrane was incubated for 5 minutes at room temperature with SuperSignal West Pico chemiluminescence substrate as per manufacturer's protocol. The resultant chemiluminescence of the bands was recorded on a photographic film and developed using a film processor.

[4] = Near UV-visible absorption spectra; type: physicochemical; conditions: near-UV/Vis, 2.5 mM solution in methanol; relative to the conventional photolabel
concanavalin A (Con A) [5] = biological target: T1, concanavalin A (Con A); test: Photolabeling of Con A in the presence of mannose (competitive binding); conditions: competing mannose at 100 fold or 1000 fold, western blot
Method: For the competitive binding studies with mannose, to a solution of Con A (0.2 mg) in acetate buffer (10 mM, pH=5 with calcium chloride (1 mM), manganese (II) chloride (1 mM) and sodium chloride (200 mM)) (1 ml) a aqueous solution of mannose (30 μL of 100 mM solution for 100 fold [or] 30 μL of 1 M solution for 1000 fold) was added and mixed. To this the photoaffinity label (20, 21 or 22) solution (10 mM) in methanol (3 μL) was added at 0° C. This solution was bubbled with a gentle stream of nitrogen gas, using a clean needle, for 5 minutes and incubated in the dark at 0° C. for 30 minutes. The sample was then transferred to a disposable cuvette and photoactivated for 10 minutes using a 150 W XBO xenon short-arc UV lamp fitted with a filter that cuts off light with wavelengths less than 320 nm. The resultant sample can be stored at −80° C. and used for SDS gel and Western blot analysis.
Upon running the SDS gel, the PVDF membrane and gel was shaken in transfer buffer for 15 minutes. The holder cassette was placed opened in a shallow vessel such that the black panel was lying flat on the bottom of the vessel. Fiber pad presoaked with transfer buffer was then placed on the black panel of the holder cassette and a presoaked filter paper was placed over it. […] The resultant chemiluminescence of the bands was recorded on a photographic film and developed using a film processor.

Compound	photodecomposition under ambient light (in words) [1]	diazirine remaining intact after ambient light exposure [1] [%]	decomposition / stability in the dark (in words) [2]	photolabeling of Con A upon UV photoactivation (in words) (concanavalin A (Con A) [3])	decrease of absorption coefficient ϵ [4]	labeling of Con A without UV photoactivation (in words) (concanavalin A (Con A) [3])	photolabeling / crosslinking of Con A in the presence of mannose (in words) (concanavalin A (Con A) [5])
OCc1ccc(C2(C(F)(F)F)N=N2)cn1 [compound 1, (5-(3-(trifluoromethyl)-3H-diazirin-3-yl)pyridin-2-yl)methanol]	negligibly photodecomposed	79	stable	as efficiently as the conventional diazirine photolabel 3	approximately 15%	–	–
O=C(CCCCC1SCC2NC(=O)NC21)NCCCCCCN(Cc1ccc(C2(C(F)(F)F)N=N2)cc1)C(=O)CO[C@H]1O[C@H](CO)[C@@H](O)[C@H](O)[C@@H]1O (stereo partly drawn) [compound 20, 5-(2-oxohexahydro-1H-thieno[3,4-d]imidazol-4-yl)-N-(6-(N-(4-(3-(trifluoromethyl)-3H-diazirin-3-yl)benzyl)-2-(((2S,3S,4S,5S,6R)-3,4,5-trihydroxy-6-(hydroxymethyl)tetrahydro-2H-pyran-2-yl)oxy)acetamido)hexyl)pentanamide]	–	–	–	successfully labeled the protein target upon photoactivation	–	detected only with coomassie stain and not in the western blot analysis	–
OCc1ncc(C2(C(F)(F)F)N=N2)cn1 [compound 2, (5-(3-(trifluoromethyl)-3H-diazirin-3-yl)pyrimidin-2-yl) methanol]	virtually unaffected	90	stable	as efficiently as the conventional diazirine photolabel 3	~30%	–	–
O=C(CCCCC1SCC2NC(=O)NC21)NCCCCCCN(Cc1ncc(C2(C(F)(F)F)N=N2)cn1)C(=O)CO[C@H]1O[C@H](CO)[C@@H](O)[C@H](O)[C@@H]1O (stereo partly drawn) [compound 22, 5-(2-oxohexahydro-1H-thieno[3,4-d]imidazol-4-yl)-N-(6-(N-((5-(3-(trifluoromethyl)-3H-diazirin-3-yl)pyrimidin-2-yl)methyl)-2-(((2S,3S,4S,5S,6R)-3,4,5-trihydroxy-6-(hydroxymethyl)tetrahydro-2H-pyran-2-yl)oxy)acetamido)hexyl)pentanamide]	–	–	–	successfully labeled the protein target upon photoactivation; also recorded: as effectively as the conventional phenyl derived photolabel 20	–	detected only with coomassie stain and not in the western blot analysis	correlates indirectly to the concentration of competing mannose ligand
OCc1ccc(C2(C(F)(F)F)N=N2)cc1 [compound 3, (4-(3-(trifluoromethyl)-3H-diazirin-3-yl)phenyl)methanol, reference compound]	significant photodecomposition	27	stable	–	–	–	–
O=C(CCCCC1SCC2NC(=O)NC21)NCCCCCCN(Cc1ccc(C2(C(F)(F)F)N=N2)cn1)C(=O)CO[C@H]1O[C@H](CO)[C@@H](O)[C@H](O)[C@@H]1O (stereo partly drawn) [compound 21, 5-(2-oxohexahydro-1H-thieno[3,4-d]imidazol-4-yl)-N-(6-(N-((5-(3-(trifluoromethyl)-3H-diazirin-3-yl)pyridin-2-yl)methyl)-2-(((2S,3S,4S,5S,6R)-3,4,5-trihydroxy-6-(hydroxymethyl)tetrahydro-2H-pyran-2-yl)oxy)acetamido)hexyl)pentanamide]	–	–	–	successfully labeled the protein target upon photoactivation; also recorded: as effectively as the conventional phenyl derived photolabel 20	–	detected only with coomassie stain and not in the western blot analysis	correlates indirectly to the concentration of competing mannose ligand
